Results: patent US5780307A, “Immunosuppressive drug binding proteins and use” (priority 1996, dated 1998)
Where “and” joins values, the source holds several entries; their conditions need not be identical. Equal entries are not always repeated. Where two headings read alike, the source gives them in different places. Starred links: 1 amine or outer side, 2 acyl side, 3 side chain; linkers in the order of their positions; H or OH if unused. Residues, ends and D or L forms follow the SMILES beside them. *: point of attachment. pNA = O=[N+]([O-])c1ccc(N*)cc1; Suc = O=C(CCC(=O)[*:2])[*:1]

Assays:
[1] = system: calf thymus 50-54 kDa immunophilin; test: Rotamase (peptidyl-prolyl cis-trans isomerase) assay, 50-54 kDa immunophilin; assay type: biochemical; design: key: no activity observed; conditions: rotamase activity with this peptide as substrate
Protocol: (§1) Rotamase activity (cis-trans peptidyl-prolyl isomerase activity) may be assayed in purified immunophilins using the methods of Fischer et al., Nature, 337:476 (1989) and Lange et al., Nature 4 331:453 (1988), which are incorporated herein by reference.
(§2) Only peptidyl propyl cis-trans isomerase activity to kobs values of greater than about 0.5 min^-1 are considered significant. Values below this are not considered to be due to the catalytic properties of the protein being analyzed.

10-12 kDa immunophilin = test: Rotamase (peptidyl-prolyl cis-trans isomerase) assay, 10-12 kDa immunophilin; assay type: biochemical; design: key: no activity observed; conditions: rotamase activity with this peptide as substrate
Protocol: as §1, §2

[2] = system: JURKAT cell cytosol protein fractions; test: Binding and competition in JURKAT cytosol protein fractions; design: competition for CsA binding to 16-18 kDa and 50-54 kDa fractions / inhibition of [3H-dihydro]-FK-506 binding in all fractions: unit of the concentration uncertain
Protocol: This fraction (3.02 mg in 2.7 mL) was then passed through a BioSil-125 HPLC column at a flow rate of 1.0 mL/minute of 10 mM phosphate buffer, pH 6.8. Those fractions around the expected molecular weight (around 50 kDa) were tested for binding to [^3 H]

[3] = system: purified 50-54 kDa binding protein (JURKAT cells); test: Binding competition curves, purified 50-54 kDa binding protein, LH-20 separation
Protocol: Binding of [^3 H-dihydro]-FK506 to this protein was inhibited in a dose-dependent manner by rapamycin (B50 =0. 1 nM), whereas binding of [^3 H]-CSA to this protein was not affected by rapamycin at concentrations as high as 300 nM.

[4] = system: 50-54 kDa binding protein (JURKAT cells); test: Scatchard / direct binding to purified 50-54 kDa immunophilin
Protocol: (§3) Association constants, specific binding activities, and numbers and types of binding sites can be obtained from Scatchard and Hill plots, using EBDA and LIGAND software.
(§4) Bound and free ligand were separated using the above-described LH-20 system.
(§5) The binding proteins purified in Example 5 were incubated with increasing amounts of labeled ligand and the binding data analyzed according to Scatchard.

[5] = system: 34-37 kDa immunophilin (Jurkat cells); test: Radioreceptor assay / Scatchard analysis, purified 34-37 kDa immunophilin; assay type: binding
Protocol: Receptor density (Bmax), affinity (Kd) and Hill coefficients (nH) were obtained using EBDA and Ligand computer programs. Radioreceptor assay: The radioreceptor assay was done in a final volume of 250 μl. […] To assess total binding, 25 μL of 50 % ethanol alone was added to maintain a constant level of ethanol in the reaction. 100-150 μL of 5 mM phosphate buffer, pH 6.8, containing 0.2% Tween 20, was added. 2-5 μg protein solution in 50-100 μL was added to obtain a final reaction volume of 250 μL. Following a 20 minute incubation at 25° C. on a shaker, 200 μL of the reaction mixture was added to Sephadex LH-20 columns (Pharmacia Biotech, Piscataway, N.J., U.S.A.,1.8 mL bed volume) equilibrated with LH-20 assay buffer (20 mM Tris buffer, pH 7.2, 5 mM β-mercaptoethanol and 0.05% sodium azide).
SDS-PAGE electrophoresis: The protein from the gel filtration fraction was analyzed for purity using 10% SDS-PAGE electrophoresis in the presence and absence of mercaptoethanol and visualized using DAIICHI-II silver staining. […] The data were analyzed using EBDA and Ligand computer programs.

[6] = Storage stability of FK-506 in frozen blood; assay type: physicochemical; conditions: frozen (-20° C.) blood
Protocol: The competition-type PBA was conducted as follows. […] Following a 20-minute incubation at 25° C., 100 μL of a reaction mixture was added to a 1.8 mL bed volume Sephadex LH-20 column preequilibrated with 20 mM Tris buffer, pH 7.2-5 mM 2-mercaptoethanol-0.05% NaN3. Elution with five 250 μL portions of this buffer completely separated free from protein-bound radioligand. The protein-bound radioactivity in the 1.25 mL of eluate was measured in 10 mL Optima Gold Scintillation Cocktail (Packard Chemicals, Meriden, Conn.) in a liquid scintillation spectrometer operating at 59% counting efficiency. […] All analyses were performed in duplicate.

[7] = system: 50-54 kDa binding protein (JURKAT cells)
Protocol: as §3, §4, §5

[8] = molecular target: 10-12 kDa binding protein (JURKAT cells) (Homo sapiens, UniProt P62942); conditions: Scatchard analysis, 10-12 kDa (8-12 kDa) protein
Sequence of 10-12 kDa binding protein (JURKAT cells) (P62942 whole entry): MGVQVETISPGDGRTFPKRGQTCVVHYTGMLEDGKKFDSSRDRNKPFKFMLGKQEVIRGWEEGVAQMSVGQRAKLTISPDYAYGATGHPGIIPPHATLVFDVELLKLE
Protocol: as §3, §5

Row | SMILES | kobs, 50-54 kDa [1] | kobs, 10-12 kDa (10-12 kDa immunophilin) | other results
1 | C[C@H](NC(=O)CCC(=O)O)C(=O)N[C@@H](CCCCN)C(=O)N1CCC[C@H]1C(=O)N[C@@H](Cc1ccccc1)C(=O)Nc1ccc([N+](=O)[O-])cc1 [Suc--Ala--Lys--Pro--Phe--pNA] | 0.004 s⁻¹ | 0.36 min^-1 | –
2 | C[C@H](NC(=O)CCC(=O)O)C(=O)NCC(=O)N1CCC[C@H]1C(=O)N[C@@H](Cc1ccccc1)C(=O)Nc1ccc([N+](=O)[O-])cc1 [Suc--Ala--Gly--Pro--Phe--pNA] (Suc-AGPF-pNA) | 0.00667 s⁻¹ | a | –
3 | CO[C@H]1C[C@@H]2CC[C@@H](C)[C@@](O)(O2)C(=O)C(=O)N2CCCC[C@H]2C(=O)O[C@H]([C@H](C)C[C@@H]2CC[C@@H](O)[C@H](OC)C2)CC(=O)[C@H](C)/C=C(\C)[C@@H](O)[C@@H](OC)C(=O)[C@H](C)C[C@H](C)/C=C/C=C/C=C/1C [rapamycin] | – | – | inhibition of [3H-dihydro]-FK-506 binding in all fractions ([2]; 0.7 (unit uncertain)): inhibited; competition for CsA binding to 16-18 kDa and 50-54 kDa fractions ([2]; 70 (unit uncertain)): did not compete; IC50 ([3]; 1.8 pmol [3H-dihydro]-FK-506, 15 minutes at 25° C., read-out: B50, inhibition of [3H-dihydro]-FK506 binding): 0.1 nM; effect on binding of [3H]-CSA to the 50-54 kDa protein ([3]; concentrations as high as 300 nM): not affected; binding to purified 50-54 kDa binding protein [4]: bound; Kd ([4]; read-out: dissociation constant, 50-54 kDa protein, unit inferred): 0.1 to 0.2 nM
4 | C[C@H](NC(=O)CCC(=O)O)C(=O)N[C@@H](CCC(N)=O)C(=O)N1CCC[C@H]1C(=O)N[C@@H](Cc1ccccc1)C(=O)Nc1ccc([N+](=O)[O-])cc1 [Suc--Ala--Gln--Pro--Phe--pNA] (Suc-AQPF-pNA) | 0.00367 s⁻¹ | 0.23 min^-1 | –
5 | [3H]CC([3H])C[C@@H]1/C=C(\C)C[C@H](C)C[C@H](OC)[C@H]2O[C@@](O)(C(=O)C(=O)N3CCCC[C@H]3C(=O)O[C@H](/C(C)=C/[C@@H]3CC[C@@H](O)[C@H](OC)C3)[C@H](C)[C@@H](O)CC1=O)[C@H](C)C[C@@H]2OC (stereo partly drawn) [tritiated dihydro FK506] | – | – | Hill coefficients ([5]; saturation experiments): near unity
6 | O=C(O)CCC(=O)N[C@@H](Cc1ccccc1)C(=O)N1CCC[C@H]1C(=O)N[C@@H](Cc1ccccc1)C(=O)Nc1ccc([N+](=O)[O-])cc1 [Suc--Phe--Pro--Phe--pNA] (Suc-Phe-Pro-Phe-pNA) | 0.001 s⁻¹ | 0.63 min^-1 | –
7 | CCC[C@@H]1/C=C(\C)C[C@H](C)C[C@H](OC)[C@H]2O[C@@](O)(C(=O)C(=O)N3CCCC[C@H]3C(=O)O[C@H](/C(C)=C/[C@@H]3CC[C@@H](O)[C@H](OC)C3)[C@H](C)[C@@H](O)CC1=O)[C@H](C)C[C@@H]2OC [tritiated dihydro FK506] | – | – | Kd ([5]; saturation experiments, 0.25 to 20 nM): 4.5 nM
8 | C=CCC1C=C(C)CC(C)CC(OC)C2OC(O)(C(=O)C(=O)N3CCCCC3C(=O)OC(C(C)=CC3CCC(O)C(OC)C3)C(C)C(O)CC1=O)C(C)CC2OC (stereo not drawn) [FK-506, tacrolimus] | – | – | inhibition of binding of [3H]-CSA ([2]; isoelectric focusing fraction at pH 6.29): inhibited; time without variability in assay results on storage [6]: at least 30 days; inhibition of binding of [3H]-CsA to the 50-54 kDa protein ([3]; all concentrations tested): inhibited; binding to purified 50-54 kDa binding protein [4]: bound; Kd [7]: 1 to 10 nM and ~2 nM; binding capacity / specific binding activity [8]: about 0.5 nmol/mg; displacement of bound radioligand from the binding sites ([5]; 1 μM unlabelled drug, 20 min): > 95%
9 | C[C@H](NC(=O)CCC(=O)O)C(=O)N[C@@H](Cc1c[nH]c2ccccc12)C(=O)N1CCC[C@H]1C(=O)N[C@@H](Cc1ccccc1)C(=O)Nc1ccc([N+](=O)[O-])cc1 [Suc--Ala--Trp--Pro--Phe--pNA] (Suc-AWPF-pNA) | 0.00233 s⁻¹ | 0.21 min^-1 | –
10 | CC[C@H](C)[C@H](NC(=O)[C@H](C)NC(=O)CCC(=O)O)C(=O)N1CCC[C@H]1C(=O)N[C@@H](Cc1ccccc1)C(=O)Nc1ccc([N+](=O)[O-])cc1 [Suc--Ala--Ile--Pro--Phe--pNA] (Suc-AIPF-pNA) | 0.00033 s⁻¹ | 0.69 min^-1 | –
11 | C[C@H](NC(=O)CCC(=O)O)C(=O)N[C@@H](Cc1ccccc1)C(=O)N1CCC[C@H]1C(=O)N[C@@H](Cc1ccccc1)C(=O)Nc1ccc([N+](=O)[O-])cc1 [Suc--Ala--Phe--Pro--Phe--pNA] | 0.003 s⁻¹ | 3.0 min^-1 | –
12 | CCCC[C@H](NC(=O)[C@H](C)NC(=O)CCC(=O)O)C(=O)N1CCC[C@H]1C(=O)N[C@@H](Cc1ccccc1)C(=O)Nc1ccc([N+](=O)[O-])cc1 [Suc--Ala--Nle--Pro--Phe--pNA] | 0.00417 s⁻¹ | 0.58 min^-1 | –
13 | C[C@H](NC(=O)CCC(=O)O)C(=O)N[C@@H](CCC(=O)O)C(=O)N1CCC[C@H]1C(=O)N[C@@H](Cc1ccccc1)C(=O)Nc1ccc([N+](=O)[O-])cc1 [Suc--Ala--Glu--Pro--Phe--pNA] (Suc-AEPF-pNA) | a | a | –
14 | CC(C)C[C@H](NC(=O)[C@@H]1CCCN1C(=O)[C@H](C)NC(=O)[C@H](C)NC(=O)CCC(=O)O)C(=O)Nc1ccc([N+](=O)[O-])cc1 [Suc--Ala--Ala--Pro--Leu--pNA] (Suc-AAPL-pNA) | 0.0075 s⁻¹ | 0.93 min^-1 | –
15 | C[C@H](NC(=O)CCC(=O)O)C(=O)N[C@@H](Cc1c[nH]cn1)C(=O)N1CCC[C@H]1C(=O)N[C@@H](Cc1ccccc1)C(=O)Nc1ccc([N+](=O)[O-])cc1 [Suc--Ala--His--Pro--Phe--pNA] (Suc-AHPF-pNA) | 0.001 s⁻¹ | a | –
16 | CC(C)C[C@H](NC(=O)[C@H](C)NC(=O)CCC(=O)O)C(=O)N1CCC[C@H]1C(=O)N[C@@H](Cc1ccccc1)C(=O)Nc1ccc([N+](=O)[O-])cc1 [Suc--Ala--Leu--Pro--Phe--pNA] (Suc-ALPF-pNA) | 0.00267 s⁻¹ | 1.61 min^-1 | –
